Experimental data: patent publication US5338733A, “Isoxazolidinyl carbapenem derivative” (Shionogi Seiyaku Kabushiki Kaisha, priority 1992, dated 1994)
Values after ≈ are worked out from the molar mass of the structure shown. Counter-ions that a name gives are not always drawn. Like-named read-outs stand apart in the source and are kept apart here.

Legend:
[1] = test system: Staphylococcus aureus 209P; test: MIC, Staphylococcus aureus 209P; type: cell-based; details: read-out: MIC (Minimal Inhibitory Concentration)
Protocol: (§1) The carbapenem compounds obtained in Examples 3, 5 and 8 were evaluated for antimicrobial activity, the integrated value of a concentration in blood (Area Under the Curve: AUC), recovery from urine and decomposition by human kidney dehydropeptidase-1 by using imipenem, meropenem and cephalosporin derivatives (A) and (B) as controls.
(§2) 1) MIC (Minimal Inhibitory Concentration) (γ/ml):
(§3) Antimicrobial activity was evaluated by using MIC.

[2] = test system: Gram-positive bacteria and Gram-negative bacteria; test: Antimicrobial activity against Gram-positive and Gram-negative bacteria (overall); type: cell-based; details: as compared with imipenem, meropenem and cephalosporin derivatives (A) and (B); in words
Protocol: as §1, §2, §3

[3] = test system: human kidney dehydropeptidase-1; test: in vitro; type: in vitro ADME
Protocol: as §1

Entercoccus SR1004 = test: MIC, Entercoccus SR1004; type: cell-based; details: read-out: MIC (Minimal Inhibitory Concentration)
Protocol: as §1, §2, §3

[4] = test system: Pseudomonas aeruginosa SR1012; test: MIC, Pseudomonas aeruginosa SR1012; type: cell-based
Protocol: as §1, §2, §3

in vivo [5] = details: mouse, iv
Protocol: as §1
2) Concentration in Blood (γ/ml):
Each compound was intravenously injected into a mouse, and the concentration in the blood 15 minutes after the injection was measured.
3) Recovery from Urine (%):
Each compound was intravenously injected into a mouse and a monkey, and the content in the urine 24 hours after the injection was measured. A rate of recovery was obtained from the content.

in vitro = in vitro ADME, human; details: human, kidney dehydropeptidase-1
Protocol: as §1

in vivo [6] = details: monkey, iv
[7] = Pseudomonas aeruginosa SR1012, read-out: MIC (Minimal Inhibitory Concentration)

SMILES | MIC ([1]; Staphylococcus aureus 209P) [µg/mL] | antimicrobial activity against Gram-positive bacteria and Gram-negative bacteria [2] | hydrolysis rate in the body [3] | MIC (Entercoccus SR1004; Entercoccus SR1004) [µg/mL] | MIC [4, 7] [µg/mL] | AUC (in vivo [5]) [ng·h/mL] | concentration at 0.25 h (in vivo [5]) [ng/mL] | metabolised (in vitro) [%] | AUC (in vivo [6]) [ng·h/mL] | MIC ([1]; Staphylococcus aureus, 209P) [µg/mL] | MIC (Entercoccus SR1004) [µg/mL] | MIC ([4]; Pseudomonas aeruginosa, SR1012, read-out: MIC (Minimal Inhibitory Concentration)) [µg/mL]
CN1CCC(C2=C(C(=O)O)N3C(=O)C(NC(=O)C(=NO)c4csc(N)n4)C3SC2)O1 (stereo not drawn) [Cephalosporin (A)] | 0.78 (≈ 1.72 µM) |  |  |  |  |  |  |  |  |  |  | 
C[C@H]1C([C@@H]2CC[N+](C)(C)O2)=C(C(=O)[O-])N2C(=O)[C@H]([C@@H](C)O)C12 (stereo partly drawn) [Example 5, (1S,6S)-6-((R)-1-hydroxyethyl)-2-((5S)-2,2-dimethylisoxazolidinio-5-yl)-1-methyl-1-carba-2-penem-3-carboxylate] | 0.0125 (≈ 0.0403 µM) | excellent antimicrobial activity | low hydrolysis rate | 0.78 (≈ 2.51 µM) | 1.56 (≈ 5.03 µM) |  |  |  |  |  |  | 
C[C@H]1C([C@H]2CC[N+](C)(C)O2)=C(C(=O)[O-])N2C(=O)[C@H]([C@@H](C)O)C12 (stereo partly drawn) [Example 3, (1S,6S)-6-((R)-1-hydroxyethyl)-2-((5R)-2,2-dimethylisoxazolidinio-5-yl)-1-methyl-1-carba-2-penem-3-carboxylate] | 0.0125 (≈ 0.0403 µM) | excellent antimicrobial activity | low hydrolysis rate | 0.78 (≈ 2.51 µM) | 0.78 (≈ 2.51 µM) | 19000 | 36300 | 97 | 35200 |  |  | 
C[C@H]1C([C@@H]2CCN(C)O2)=C(C(=O)O)N2C(=O)[C@H]([C@@H](C)O)C12 (stereo partly drawn) [Example 8, sodium (1S,6S)-6-((R)-l-hydroxyethyl)-1-methyl-2-((5S)-2-methylisoxazolidine-5-yl)-1-carba-2-penem-3-carboxylate salt] | 0.1 | excellent antimicrobial activity | low hydrolysis rate |  |  |  |  |  |  |  |  | 
C[N+]1(C)CCC(C2=C(C(=O)[O-])N3C(=O)C(NC(=O)C(=NO)c4csc(N)n4)C3SC2)O1 (stereo not drawn) [Cephalosporin (B)] | 0.2 (≈ 0.427 µM) |  |  |  |  |  |  |  |  |  |  | 
C[C@@H](O)[C@H]1C(=O)N2C(C(=O)O)=C(SCCN=CN)C[C@H]12 [Imipenen, imipenem] |  |  |  |  |  | 8800 | 20600 | 73 | 13300 | 0.0125 (≈ 0.0418 µM) | 1.56 (≈ 5.21 µM) | 1.56 (≈ 5.21 µM)
C[C@@H](O)[C@H]1C(=O)N2C(C(=O)O)=C(S[C@@H]3CN[C@H](C(=O)N(C)C)C3)[C@H](C)[C@H]12 [Meropenen, meropenem] | 0.1 (≈ 0.261 µM) |  |  | 6.25 (≈ 16.3 µM) | 0.78 (≈ 2.03 µM) | 5200 | 13700 | 87 | 17200 |  |  | 
